Legend:
[1] = tested on: isolated rings of thoracic aorta; assay: Evaluation of release of NO: vasorelaxing activity on endothelium-denuded aortic rings contracted with KCl; design: species or system rat; details: for vasorelaxing effect in the presence of ODQ: ODQ 1 μM, guanylate cyclase inhibitor; for IC50 / Emax: Rattus norvegicus; for IC50: concentration reducing contractile tone induced by 20 mM KCl by half, read-out: NO release properties pIC50 (vasorelaxing potency) (converted); for Emax: relative to contractile tone induced by 20 mM KCl, 1 nM-10 μM, read-out: NO release properties Emax (maximum vasorelaxing effect)
Method: The activity of the compounds was evaluated on isolated rings of thoracic aorta of normotensive male Wistar rats (250-350 g). After light anaesthesia with ether, the rats were sacrificed by cervical dislocation and exsanguination. The aortas were immediately excised, extraneous tissues were removed and the endothelial layer was removed by gently rubbing the surface with a hypodermic needle. Rings of aorta with a width of 5 mm were suspended, with a preload of 2 g, in 20-ml organ baths, containing a solution of “Tyrode” (composition of the saline solution in mM: NaCl 136.8; KCl 2.95; CaCl2 1.80; MgSO4 1.05; NaH2PO4 0.41; NaHCO3 11.9; glucose 5.5), thermostatically controlled at 37° C. and kept in an atmosphere of O2 (95%) and CO2 (5%). […] were recorded by means of an isometric transducer (FTO3 Erba), connected to a microdynamometer (Buxco Electronics).
60 minutes after preparation, removal of the endothelium was confirmed by acetylcholine (ACH) (10 μM) treatment of the vascular rings pre-contracted with KCl (20 mM). Relaxation of less than 10% of the contraction induced by KCl was considered as representative of acceptable removal of the endothelial layer, whereas organs displaying relaxation ≧10% were discarded. 40 minutes after confirmation of complete removal of the endothelium, the aortas were contracted by treatment with a single dose of KCl (20 mM) and after the contraction reached a stable plateau, increasing cumulative concentrations (with progressive increments of 3 times) of the test compounds (1 nM-10 μM) were added. It was found from preliminary experiments that the contraction induced by KCl (20 mM) remained stable in a tonic state for at least 40 minutes. The same experiments were performed in the presence of a well-known inhibitor of guanylate cyclase: ODQ 1 μM, which was incubated in aorta preparations after confirmation of removal of the endothelium.
Analysis of the results. The vasorelaxing activity was evaluated as a percentage (%) relative to the contractile tone induced by 20 mM KCl. The pharmacodynamic efficacy parameter (Emax) corresponds to the maximum vasorelaxing effect induced by the molecule tested, expressed as percentage relative to the contractile tone induced by 20 mM KCl. When the limit concentration of 10 μM (the highest concentration administered) of the test compounds has not reached the maximum effect, the efficacy parameter (Emax) corresponds to the vasorelaxing effect induced by the limit concentration (expressed as percentage relative to the contractile tone induced by 20 mM KCl). The pharmacodynamic parameter of potency of the compounds was expressed as pIC50 calculated as the negative logarithm of the molar concentration of test compound that reduces the contractile tone induced by 20 mM KCl by half. […] The parameters of efficacy and potency were expressed as mean±standard error, for 5-10 experiments. The experimental data were analysed by the program GraphPad Prism 3.0.

[2] = tested on: mouse abdominal contraction (writhing) induced by acetic acid; assay: Abdominal constriction test induced by acetic acid; assay type: in vivo
Method: (§1) Male Swiss albino mice (23-25 g) and Wistar rats (150-200 g) were used.
The antinociceptive activity was determined by the mouse abdominal contraction test using acetic acid (0.6%), which induces writhing, according to Koster's method (Fed. Proc., 1959, 18, 412-418). The number of stretching movements was counted for 10 minutes, starting 5 minutes after injection of acetic acid. The results relating to analgesic activity in the abdominal constriction test with representative compounds of the invention are shown in Table 10.
The test was carried out using 10 animals in the treated group and 20 in the control group (CMC); all the compounds were administered per os with the exception of the compound of Example 8, which was administered i.p.

COX-2 = COX-2 (Mus musculus (Mouse), UniProt Q05769); assay: Evaluation of COX-2 activity: PGE2 production in LPS-stimulated J774 cells; assay type: cell-based, murine; details: J774 cells stimulated 24 hours with LPS 10 μg/mL; PGE2 by radio-immunological assay; read-out: Cyclooxygenase inhibition COX-2 IC50
Method: The murine monocyte/macrophage cell line J774 is grown in Dulbecco's modified Eagle's medium (DMEM), enriched with glutamine (2 mM), HEPES (25 mM), penicillin (100 u/mL), streptomycin (100 μg/mL), 10% of fetal bovine serum (FBS) and 1.2% of sodium pyruvate. […] Just before the experiments, the culture medium is replaced with fresh medium without FBS to avoid interference during the radio-immunological phase and the cells are stimulated as described below.
The supernatants are collected for evaluating, by means of radio-immunological assays, the amount of PGE2 produced.
In each group of experiments, wells were used in triplicate for the different treatment conditions. […] The data were evaluated using the sigmoidal dose-response equation (variable slope) (GraphPad software). IC50 and the 95% precision intervals were calculated with the program GraphPad Instat (GraphPad software).

[3] = tested on: rat paw oedema induced by carrageenan; assay: Volume of oedema test (carrageenan); assay type: in vivo
Method: The rat paw volumes were measured using a pletismometer. Four hours after injecting carrageenan 1.0% (0.1 ml injection), the volume of the right hind-paw was measured and compared with that of controls treated with a saline/carrageenan solution. The rats were administered the test compounds 3.5 hours after the carrageenan. The results are given as paw volume expressed in ml. The results relating to the analgesic and anti-oedemic activity in the carrageenan test for some representative compounds of the invention are shown in Table 11.
(§2) The test was performed using 6 animals per group, all the compounds were administered per os, 30 min before the test. The carrageenan is administered 2 h before the test.

[4] = tested on: carrageenan-induced inflammatory state in the rat; assay: Carrageenan test: nociceptive threshold (weight supported); assay type: in vivo; details: for Weight supported (g) Before treatment: baseline before treatment
Method: as §1
The nociceptive threshold in the rat was determined with an analgesiometer, as described by Leighton et al. (Br. J. Pharmacol., 1988, 93, 553-560), the pressure was measured before the treatment and after 30 and 60 min. To reproduce the inflammatory state in the rat, carrageenan was administered i.p. (0.1 ml, 1%) 4 h before the test.
as §2

rat liver homogenate = assay: Evaluation of release of nitrites in hepatic homogenate; details: nitrite after 4 hours, 1 mM, 37° C., as percentage of SNP
Description: By evaluating the time-dependent increase in nitrite concentrations in the liver homogenate, it was possible to extrapolate two descriptive parameters:
Time (in minutes) required for an amount of nitrite to be released by the test compound equal to half its maximum release.

Sequence of COX-2 (Q05769 18-604): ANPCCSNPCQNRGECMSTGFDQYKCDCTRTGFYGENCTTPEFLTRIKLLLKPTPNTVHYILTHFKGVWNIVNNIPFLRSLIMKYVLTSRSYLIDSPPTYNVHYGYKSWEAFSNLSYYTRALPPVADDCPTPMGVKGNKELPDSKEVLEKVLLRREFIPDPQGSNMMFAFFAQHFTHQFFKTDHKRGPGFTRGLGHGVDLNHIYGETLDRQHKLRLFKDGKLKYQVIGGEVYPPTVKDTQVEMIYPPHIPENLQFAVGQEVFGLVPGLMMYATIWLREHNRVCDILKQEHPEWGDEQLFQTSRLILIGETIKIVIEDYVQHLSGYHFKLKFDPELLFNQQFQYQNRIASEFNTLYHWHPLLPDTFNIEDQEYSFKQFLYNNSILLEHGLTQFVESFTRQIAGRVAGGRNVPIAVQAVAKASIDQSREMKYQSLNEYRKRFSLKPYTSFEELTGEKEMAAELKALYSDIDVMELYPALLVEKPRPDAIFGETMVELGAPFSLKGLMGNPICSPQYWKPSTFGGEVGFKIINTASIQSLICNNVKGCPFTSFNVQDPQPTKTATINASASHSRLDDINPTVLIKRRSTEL

Q: With Cc1c(C(N)C(=O)OCCCCO[N+](=O)[O-])cc(-c2ccc(S(C)(=O)=O)cc2)n1-c1ccc(F)cc1 (racemic) [Example 20, (R,S)-4-(Nitrooxy)butyl-[2-amino-2-[1-(4-fluorophenyl)-2-methyl-5-(4-methylsulphonylphenyl)-1H-pyrrol-3-yl]]-acetate] as the molecule, how does the “vasorelaxing effect in the presence of ODQ” value [1] read?
A: not fully antagonized by ODQ

Q: What about the IC50 [1] of the same molecule?
A: 1550 nM

Q: What about the Emax [1] of the same molecule?
A: 93 ± 1%

Q: And the N writhes ([2]; 40 mg/kg per os)?
A: 19.8 ± 2.4

Q: What about the IC50 (COX-2) of the same molecule?
A: 1000 nM

Q: What about the melting point of the same molecule?
A: 108 °C

Q: Which IC50 [1] does the source give for Cc1c(CC(=O)OCCO[N+](=O)[O-])cc(-c2ccc(S(C)(=O)=O)cc2)n1-c1cccc(F)c1 [Example 3, 2-(Nitrooxy)ethyl-2-[(1-(3-fluorophenyl)-2-methyl-5-(4-methylsulphonylphenyl)-1H-pyrrol-3-yl)]acetate] here?
A: 331 nM

Q: What about the Emax [1] of the same molecule?
A: 69 ± 4%

Q: What about the “Oedema Volume” value ([3]; 40 mg/kg per os) of the same molecule?
A: 2.17 ± 0.08 mL

Q: And the N writhes ([2]; 20 mg/kg per os)?
A: 17.1 ± 2.3

Q: And the N writhes ([2]; 40 mg/kg per os)?
A: 9.4 ± 2.5

Q: And the “Weight supported (g) After treatment 30 min” value ([4]; 40 mg/kg per os)?
A: 54.1 ± 3.7 g

Q: And the “Weight supported (g) After treatment 60 min” value ([4]; 40 mg/kg per os)?
A: 38.7 ± 3.1 g

Q: And the “Weight supported (g) Before treatment” value ([4]; 40 mg/kg per os)?
A: 32.6 ± 2.7 g

Q: And the IC50 (COX-2)?
A: 19 nM

Q: Which results are given for Cc1ccc(-c2cc(C(F)(F)F)nn2-c2ccc(S(N)(=O)=O)cc2)cc1 [Celecoxib, reference compound]?
A: Oedema Volume ([3]; 10 mg/kg per os): 1.91 ± 0.04 mL; Weight supported (g) After treatment 30 min ([4]; 10 mg/kg per os): 52.9 ± 3.1 g; Weight supported (g) After treatment 60 min ([4]; 10 mg/kg per os): 48.3 ± 3.4 g; Weight supported (g) Before treatment ([4]; 10 mg/kg per os): 30.9 ± 2.6 g

Q: What does the source list for Cc1c(CC(=O)OCCCO[N+](=O)[O-])cc(-c2ccc(S(C)(=O)=O)cc2)n1-c1cccc(F)c1 [Example 8, 3-(Nitroxy)propyl-[1-(3-fluorophenyl)-2-methyl-5-(4-methylsulphonylphenyl)-1H-pyrrol-3-yl]-acetate]?
A: IC50 [1]: 162 nM; Emax [1]: 82 ± 1%; N writhes ([2]; 20 mg/kg i.p.): 16.9 ± 2.4; IC50 (COX-2): 7 nM

Q: Which results are given for COc1ccc(-n2c(-c3ccc(S(C)(=O)=O)cc3)cc(CC(=O)OCCCCO)c2C)cc1 [Example 13-II, 4-(Hydroxy)butyl-2-[1-(4-methoxyphenyl)-2-methyl-5-(4-methylsulphonylphenyl)-1H-pyrrol-3-yl]acetate]?
A: N writhes ([2]; 40 mg/kg per os): 14.7 ± 2.5; IC50 (COX-2): 1100 nM

Q: Which “Maximum release (%)” value (rat liver homogenate) does the source give for O=C(NCCO[N+](=O)[O-])c1cccnc1 [Nicorandil, reference compound] here?
A: 18 ± 2%

Q: With Cc1c(CCOCCO)cc(-c2ccc(S(C)(=O)=O)cc2)n1-c1cccc(F)c1 [Example 38-II] as the molecule, how does the N writhes ([2]; 20 mg/kg per os) read?
A: 26.8 ± 3.2

Q: And the N writhes ([2]; 40 mg/kg per os)?
A: 17.3 ± 3.5

Q: What about the IC50 (COX-2) of the same molecule?
A: 46 nM

Q: For Cc1c(CCOCCO)cc(-c2ccc(S(C)(=O)=O)cc2)n1-c1ccc(F)c(F)c1 [Example 39-II], which N writhes ([2]; 20 mg/kg per os) is on record?
A: 24.8 ± 3.0

Q: What about the IC50 (COX-2) of the same molecule?
A: 420 nM

Q: What about the melting point of the same molecule?
A: 138 to 140 °C

Q: What does the source list for COc1ccc(-n2c(-c3ccc(S(C)(=O)=O)cc3)cc(CC(=O)OCCCO[N+](=O)[O-])c2C)cc1 [Example 9, 3-(Nitroxy)propyl-[1-(4-methoxyphenyl)-2-methyl-5-(4-methylsulphonylphenyl)-1H-pyrrol-3-yl]-acetate]?
A: Emax [1]: 41 ± 11%; N writhes ([2]; 20 mg/kg per os): 18.4 ± 3.1; IC50 (COX-2): 2 nM; melting point: 115 °C

Q: With Cc1c(C(N)C(=O)OCCCO[N+](=O)[O-])cc(-c2ccc(S(C)(=O)=O)cc2)n1-c1ccc(F)cc1 (racemic) [Example 18, (R,S)-3-(Nitrooxy)propyl-[2-amino-2-[1-(4-fluorophenyl)-2-methyl-5-(4-methylsulphonylphenyl)-1H-pyrrol-3-yl]]-acetate] as the molecule, how does the “vasorelaxing effect in the presence of ODQ” value [1] read?
A: not fully antagonized by ODQ

Q: And the IC50 [1]?
A: 2190 nM

Q: What about the Emax [1] of the same molecule?
A: 84 ± 2%

Q: What about the N writhes ([2]; 3 mg/kg per os) of the same molecule?
A: 26.9 ± 2.6

Q: And the N writhes ([2]; 10 mg/kg per os)?
A: 21.3 ± 2.5

Q: And the N writhes ([2]; 20 mg/kg per os)?
A: 18.1 ± 3.0

Q: And the N writhes ([2]; 40 mg/kg per os)?
A: 13.5 ± 2.8

Q: And the IC50 (COX-2)?
A: 820 nM

Q: For Cc1c(CC(=O)OCCCCO[N+](=O)[O-])cc(-c2ccc(S(C)(=O)=O)cc2)n1-c1cccc(F)c1 [Example 12, 4-(Nitrooxy)butyl-2-[1-(3-fluorophenyl)-2-methyl-5-(4-methylsulphonylphenyl)-1H-pyrrol-3-yl]acetate], which IC50 [1] is on record?
A: 3980 nM

Q: What about the Emax [1] of the same molecule?
A: 57 ± 14%

Q: What about the N writhes ([2]; 40 mg/kg per os) of the same molecule?
A: 25.1 ± 2.3

Q: What about the IC50 (COX-2) of the same molecule?
A: 69 nM

Q: And the melting point?
A: 114 °C

Q: What does the source list for COc1ccc(-n2c(-c3ccc(S(C)(=O)=O)cc3)cc(CC(=O)OCCO[N+](=O)[O-])c2C)cc1 [Example 4, 2-(Nitrooxy)ethyl-[1-(4-methoxy-phenyl)-2-methyl-5-(4-methylsulphonylphenyl)-1H-pyrrol-3-yl]-acetate]?
A: IC50 [1]: 178 nM; Emax [1]: 77 ± 2%; N writhes ([2]; 40 mg/kg per os): 17.7 ± 2.3; IC50 (COX-2): 170 nM; melting point: 122 °C

Q: For Cc1c(CC(=O)NC(CCO[N+](=O)[O-])C(=O)O)cc(-c2ccc(S(C)(=O)=O)cc2)n1-c1ccc(F)cc1 (racemic) [Example 32, (R,S)-4-(Nitroxy)-2-[[1-(4-fluorophenyl)-2-methyl-5-(4-methylsulphonylphenyl)-1H-pyrrol-3-yl]acetamido]butanoic Acid], which Emax [1] is on record?
A: 42 ± 9%

Q: What about the N writhes ([2]; 10 mg/kg per os) of the same molecule?
A: 22.8 ± 3.0

Q: What about the N writhes ([2]; 20 mg/kg per os) of the same molecule?
A: 14.6 ± 2.7

Q: What about the IC50 (COX-2) of the same molecule?
A: 1600 nM

Q: Which IC50 [1] does the source give for Cc1c(C(N)C(=O)OCCO[N+](=O)[O-])cc(-c2ccc(S(C)(=O)=O)cc2)n1-c1ccc(F)cc1 (racemic) [Example 16, (R,S)-2-(Nitrooxy)ethyl-[2-amino-2-[1-(4-fluorophenyl)-2-methyl-5-(4-methylsulphonylphenyl)-1H-pyrrol-3-yl]]-acetate] here?
A: 1120 nM

Q: What about the Emax [1] of the same molecule?
A: 80 ± 7%

Q: And the N writhes ([2]; 40 mg/kg per os)?
A: 24.9 ± 3.0

Q: What about the IC50 (COX-2) of the same molecule?
A: 740 nM
